In patent US8557866B2, “Isomeric mixtures of dinitro-octylphenyl esters and synergistic fungicidal mixtures therefrom” (Dow AgroSciences, LLC., priority 2007, dated 2013):

Legend:
[1] = test system: wheat powdery mildew (ERYSGT); test: Synergy test (Colby), 2 day curative glasshouse studies against wheat powdery mildew; assay type: in vivo, Erysiphe graminis f.sp tritici on wheat; conditions: alone, ERYSGT 2 day curative
[2] = test system: Uncinula necator (UNCINE); test: High volume spray greenhouse test, 1 day protectant, grape powdery mildew; assay type: in vivo, Uncinula necator on grapes
[3] = test system: Erysiphe graminis f.sp tritici (ERYSGT); test: High volume spray greenhouse test, 1 day protectant, wheat powdery mildew; assay type: in vivo, Erysiphe graminis f.sp tritici on wheat
Method: (§1) The composition of Example 1 was evaluated for fungicidal efficacy in a greenhouse on 9 diseases caused by plant pathogenic fungi (TABLE II). The plant cultivars used in this study were Ugni Blanc (grape), Bovowinka (crab apple), HH88 (sugar beet), M-9 (rice) and Yuma (wheat). Broad leaf plants and rice were grown in a soil-less peat-based potting mixture (Metromix), and wheat was grown in a 50/50 mix of mineral soil and Metromix. The wheat was grown at a temperature of 20° C. and all the other plants were grown at 25° C. Apple seeds were soaked in water, incubated for a short time in 200 ppm solution of benlate and washed again with water. The moist seeds were stored in a closed container at 7° C. (45° F.) and washed once a week with water until the radical had emerged 3 mm (approximately 30 days). The seeds were then planted and seedlings with 4-6 leaves were typically ready for inoculation 3 weeks later.
(§2) The composition of Example 1 was applied to seedlings at 100, 50, 25, and 12.5 ppm using a high volume spray application. The composition was formulated in water and serial dilutions made and then brought up to volume by adding water solution. […] Plants were evaluated for percent disease incidence 7-14 days after inoculation and the average percent disease control determined. […]

[4] = test system: Erysiphe cichoracearum (ERYSCI); test: High volume spray greenhouse test, 1 day protectant, cucumber powdery mildew; assay type: in vivo, Erysiphe cichoracearum on cucumbers; conditions: rate 200 ppm
Method: as §1, §2

[5] = test system: Puccinia recondita (PUCCRT); test: High volume spray greenhouse test, 1 day protectant, wheat brown rust; assay type: in vivo, Puccinia recondita on wheat
Method: as §1
The composition of Example 1 was applied to seedlings at 100, 50, 25, and 12.5 ppm using a high volume spray application. The composition was formulated in water and serial dilutions made and then brought up to volume by adding water solution. Plants were sprayed to run off with 15 mL of solution on a turn-table sprayer with two opposing 4JAUPM air atomization nozzles (Spraying Systems) at a pressure of 138 kPa. Volume of spray solution on a per hectare basis is approximately 4000 L/ha. Plants were inoculated with the pathogens 1 day after application of the composition of Example 1 (1 day protectant test), incubated in a dew chamber for 24 hours with 100 percent relative humidity and then moved to an appropriate environment for disease expression for the duration of the test. Three replicate pots were sprayed for each pathogen/composition combination. Plants were evaluated for percent disease incidence 7-14 days after inoculation and the average percent disease control determined.
(§3) Plants were inoculated with various pathogens 1 day after application of the composition of EXAMPLES 1, 4-5 (protectant tests) and 2 days before application for EXAMPLES 6-7 (curative tests). For all wheat trials, compositions were applied at growth stage 1.2, when the second leaf was expanded to ½ of its final size (12 days after seeds were first watered). Information on the growth stages of other plant species at the time composition application and on the propagation and inoculation procedures associated with each pathogen is given below.
(§4) PUCCRT: Spores of the obligate pathogen PUCCRT were collected from infected plants with a vacuum apparatus and stored at 4° C. Approximately 0.1 g of fresh spores (stored at 4° C. for less than 30 days) was mixed with several drops of Tween 20. The thick spore paste was diluted to 100 ml with water and sprayed to run-off on wheat seed seedlings. Plants inoculated with PUCCRT were kept in a 20° C. dew chamber overnight and then transferred to a 20° C. growth chamber where symptoms developed in 8-9 days.

[6] = test system: wheat brown rust (PUCCRT); test: Synergy test (Colby), 1 day protectant glasshouse studies against wheat brown rust; assay type: in vivo, Puccinia recondita on wheat; conditions: alone, PUCCRT 1 day protectant
Source text: as §3, §4
A synergistic effect exists whenever the action of an active ingredient combination is greater than the sum of the action of the individual components.
The action to be expected E for a given active ingredient combination obeys the so-called COLBY formula and can be calculated as follows (COLBY, S. R. “Calculating synergistic and antagonistic responses of herbicide combination”. Weeds, Vol. 15, pages 20-22; 1967)
X=percent action by active ingredient I using p ppm of active ingredient
Y=percent action by active ingredient II using q ppm of active ingredient
According to Colby the expected additive action of active ingredients I+II using p+q ppm of active ingredients is E=X+Y−(X*Y)/100
If the action actual observed (O) is greater than the expected action (E), then the action of the combination is super additive, that is, there is a synergistic effect.
Protectant activity of combinations against wheat brown rust (PUCCRT).
1 day protectant glasshouse studies.

PYRIOR = assay type: in vivo, PYRIOR on rice; conditions: rate 200 ppm, high volume test
[7] = test system: Venturia inaequalis (VENTIN); test: High volume spray greenhouse test, 1 day protectant, apple scab; assay type: in vivo, Venturia inaequalis on apple

Compound: CCCN(CC)CC1COC2(CCC(C(C)(C)C)CC2)O1 (centres unmarked) [Spiroxamine, spiroxamine]
- Observed Percent CONTROL ([1]; 12.50 ppm): 15.00%

Compound: CO/C=C(/C(=O)OC)c1ccccc1Oc1cc(Oc2ccccc2C#N)ncn1 [Azoxystrobin, azoxystrobin]
- Observed Percent CONTROL ([1]; 6.25 ppm): 13.00%
- Observed Percent CONTROL ([1]; 12.50 ppm): 15.00%
- Observed Percent CONTROL ([1]; 25 ppm): 15%
- Observed Percent CONTROL ([1]; 75 ppm): 52%
- Observed Percent CONTROL ([1]; 100 ppm): 79%
- Percent Disease Control UNCINE ([2]; rate 25 ppm): *** (*** is 80-100 percent control of disease)

Compound: C/C=C/C(=O)Oc1c(C(C)CCCCCC)cc([N+](=O)[O-])cc1[N+](=O)[O-] (centres unmarked) [Ex. 1, 2,4-dinitro-6-(1-methylheptyl)phenyl crotonate]
- Percent Disease Control ERYSGT ([3]; rate 50 ppm): *** (*** is 80-100 percent control of disease)
- Percent Disease Control ERYSGT ([3]; rate 100 ppm): *** (*** is 80-100 percent control of disease)
- Percent disease control [4]: ** (** is 50-79 percent control of disease)
- Percent disease control ([5]; PUCCRT, rate 200 ppm, high volume test): *** (*** is 80-100 percent control of disease)
- Percent Disease Control PUCCRT ([5]; rate 12.5 ppm): * (* is 0-49 percent control of disease)
- Percent Disease Control PUCCRT ([5]; rate 25 ppm): * (* is 0-49 percent control of disease)
- Percent Disease Control PUCCRT ([5]; rate 50 ppm): ** (** is 50-79 percent control of disease)
- Percent Disease Control PUCCRT ([5]; rate 100 ppm): *** (*** is 80-100 percent control of disease)
- Observed Percent CONTROL ([6]; 12.50 ppm): 0.00%
- Observed Percent CONTROL ([6]; 25.00 ppm): 11.76%
- Observed Percent CONTROL ([6]; 50.00 ppm): 33.33%
- Observed Percent CONTROL ([6]; 75.00 ppm): 68.63%
- Observed Percent CONTROL ([1]; 75 ppm): 23.00%
- Percent disease control (PYRIOR): *** (*** is 80-100 percent control of disease)
- Percent Disease Control UNCINE ([2]; rate 12.5 ppm): *** (*** is 80-100 percent control of disease)
- Percent Disease Control UNCINE ([2]; rate 25 ppm): *** (*** is 80-100 percent control of disease)
- Percent Disease Control UNCINE ([2]; rate 50 ppm): *** (*** is 80-100 percent control of disease)
- Percent Disease Control UNCINE ([2]; rate 100 ppm): *** (*** is 80-100 percent control of disease)
- Percent Disease Control VENTIN ([7]; rate 12.5 ppm): ** (** is 50-79 percent control of disease)
- Percent Disease Control VENTIN ([7]; rate 25 ppm): ** (** is 50-79 percent control of disease)
- Percent Disease Control VENTIN ([7]; rate 50 ppm): ** (** is 50-79 percent control of disease)
- Percent Disease Control VENTIN ([7]; rate 100 ppm): *** (*** is 80-100 percent control of disease)

Compound: mancozeb
- Observed Percent CONTROL ([6]; 25.00 ppm): 0.00%
- Observed Percent CONTROL ([6]; 50.00 ppm): 5.88%
- Observed Percent CONTROL ([6]; 100.00 ppm): 58.82%
- Observed Percent CONTROL ([6]; 200.00 ppm): 88.24%

Compound: CCCCC(C#N)(Cn1cncn1)c1ccc(Cl)cc1 (centres unmarked) [Myclobutanil, myclobutanil]
- Observed Percent CONTROL ([6]; 3.13 ppm): 0.00%
- Observed Percent CONTROL ([6]; 6.25 ppm): 27.45%
- Observed Percent CONTROL ([6]; 12.50 ppm): 74.51%
- Observed Percent CONTROL ([6]; 18.75 ppm): 84.31%

Compound: OC(c1ccc(Cl)cc1)(c1cncnc1)c1ccccc1Cl (centres unmarked) [Fenarimol, fenarimol, reference compound]
- Percent Disease Control VENTIN ([7]; rate 25 ppm): *** (*** is 80-100 percent control of disease)
